The results in this text go back to ChEMBL document CHEMBL1201862, “PubChem BioAssay data set” (2004).

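Compound exposure: 48 hours, 5 concentrations, 96-well plates. Here, GI50 denotes the concentration required for 50% inhibition of growth.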 Activity calls are given as the source filed them. Cut-off read from the data, not from the text of the source: active = GI50 up to about 1.1 µM and inactive = higher.

Assay in all cases: inhibition of tumour cell growth, NCI panel, 48 h
The subject of assay [1] is A498.
Assay [2] concerns ACHN.
The test system of assay [3] is COLO 205.
The test system of assay [4] is EKVX.
Assay [5] concerns HCT-15.
In assay [6] the test system is HOP-92.
Assay [7] relates to IGROV-1.
Assay [8] deals with M14.
The subject of assay [9] is MOLT-4.
Assay [10] concerns OVCAR-5.
Assay [11] concerns RXF 393.
The test system of assay [12] is SF-295.
Assay [13] concerns TK-10.
Assay [14] has as its system NCI-H226.
For assay [15], the system named is RPMI-8226.
Assay [16] deals with SK-OV-3.
Assay [17] deals with SR.

For the molecule `N/N=C1\C(=O)N(C2CCCCCC2)C(=O)C1C(=O)NC1CCCCCC1` (configuration not stated), the GI50 in assay [1] was 38 µM (inactive); in assay [2] it was 42.2 µM (inactive); in [3] it was 35.1 µM (inactive); in [4], 32.7 µM (inactive); in [5], 30 µM; in assay [6], 21.3 µM (inactive). In addition, the GI50 in assay [7] is 38 µM (inactive); in assay [8], 35 µM (inactive); in assay [9], 22 µM (inactive); in [10] it was 39.3 µM (inactive); in assay [11], 40 µM (inactive); in assay [12], 45.2 µM (inactive). Besides, the GI50 in assay [13] is > 10 µM (inactive).

With `Cc1cc(N(CCC#N)CCC#N)ccc1/C=C(\NC(=O)/C=C/c1ccccc1)NC(=O)Nc1ccc(Cl)cc1`, the GI50 in assay [1] was > 100 µM (inactive); in assay [2], 7.28 µM (inactive); in assay [3], > 100 µM (inactive); in [4], 47.9 µM (inactive); in [5], more than 100 µM; in [6], 39.4 µM (inactive). The GI50 is 38.8 µM (inactive) in assay [7]; > 100 µM (inactive) in assay [8]; > 100 µM (inactive) in [9]; 30.9 µM (inactive) in assay [14]; > 100 µM (inactive) in assay [10]; > 100 µM (inactive) in assay [15]. The figures for the GI50 in assay [11] and in assay [12] were 15.7 µM (inactive) and 42.5 µM (inactive), respectively.

Regarding `C[C@]12CCC(=O)C(O)=C1CC[C@@H]1C2CC[C@]2(C)NC(=O)CCC12` (some centres not stated), the GI50 was > 100 µM (inactive) in assay [1]; > 100 µM (inactive) in [2]; > 100 µM (inactive) in [3]; > 100 µM (inactive) in assay [4]; 70.6 µM in assay [5]; > 100 µM (inactive) in assay [6]. Moreover, the GI50 in assay [7], in [8], in assay [9], in assay [14], in assay [10] and in assay [15] was > 100 µM (inactive) in each case. Moreover, the GI50 in assay [11], in assay [12], in assay [16] and in assay [13] was > 100 µM (inactive) each time.

With `CCOC(=O)C(C)(c1cn(C)c2ccccc12)c1cn(C)c2ccccc12`, the GI50 in assay [1] is > 100 µM (inactive); in assay [2], 77.1 µM (inactive); in assay [4] it was > 100 µM (inactive); in [5], more than 100 µM; in assay [7], > 100 µM (inactive); in [8], > 100 µM (inactive). Besides, the GI50 in assay [9] is > 100 µM (inactive); in assay [14], 30.6 µM (inactive); in assay [10], > 100 µM (inactive); in assay [15], > 100 µM (inactive); in assay [11] it was 44.5 µM (inactive); in assay [12], 24.5 µM (inactive). Also, the GI50 in assay [16] was > 100 µM (inactive); in assay [13], 83.9 µM (inactive).

Turning to `Cc1cc2c(=O)cc(-c3ccc(Cl)c(Cl)c3)oc2c(C(=O)O)c1C`, the GI50 in assay [2] was > 100 µM (inactive); in assay [3] it was > 100 µM (inactive); in assay [4], > 100 µM (inactive); in assay [5], more than 100 µM; in [7] it was > 100 µM (inactive); in [8], > 100 µM (inactive). Also, the GI50 is > 100 µM (inactive) in assay [9]; > 100 µM (inactive) in assay [14]; > 100 µM (inactive) in assay [10]; > 100 µM (inactive) in [15]; 76.6 µM (inactive) in assay [11]; > 100 µM (inactive) in assay [12]. Further, the GI50 in [16] and in [13] was > 100 µM (inactive) throughout.

`CCC1=CCC(P(=O)(c2ccccc2)c2ccccc2)CC1C` (configuration not stated): the GI50 in [1] was 38.5 µM (inactive); in [3], 35 µM (inactive); in [4] it was 35.3 µM (inactive); in [5] it was 34.9 µM; in [6] it was 25.5 µM (inactive); in assay [7], 47.1 µM (inactive). In addition, the GI50 is 32.6 µM (inactive) in assay [8]; 20.5 µM (inactive) in assay [9]; 39.2 µM (inactive) in assay [14]; 65.2 µM (inactive) in assay [10]; 22.9 µM (inactive) in assay [15]; 42.2 µM (inactive) in assay [11]. Further, the GI50 in assay [12] was 32 µM (inactive); in assay [16] it was 62.8 µM (inactive); in assay [13] it was 32.6 µM (inactive).

Turning to `c1cncc(C2N3CCCCC3[C@@H]3c4[nH]c5ccccc5c4CCN23)c1` (some centres not stated), the GI50 in assay [1] was > 100 µM (inactive); in assay [2] it was > 100 µM (inactive); in assay [4] it was > 100 µM (inactive); in assay [5], more than 100 µM; in assay [6], > 100 µM (inactive); in assay [7] it was > 100 µM (inactive). Further, the GI50 in assay [8] was > 100 µM (inactive); in assay [9] it was > 100 µM (inactive); in [10] it was > 100 µM (inactive); in assay [15] it was > 100 µM (inactive); in assay [11] it was 21.1 µM (inactive); in assay [12], > 100 µM (inactive). Also, the GI50 in [16] and in assay [13] was > 100 µM (inactive) each time.

Take `CCCN(CCC)c1c([N+](=O)[O-])cc(C(=O)N(C)C)cc1[N+](=O)[O-]`: the GI50 was 16.4 µM (inactive) in assay [2]; 76.4 µM (inactive) in assay [3]; 37.8 µM (inactive) in [4]; 40.4 µM in assay [5]; 69.2 µM (inactive) in assay [7]; 96.6 µM (inactive) in [8]. For the same molecule, the GI50 in assay [9] was 41 µM (inactive); in [10], > 100 µM (inactive); in assay [15] it was 52.2 µM (inactive); in [12], > 100 µM (inactive); in assay [16] it was > 100 µM (inactive); in [13], > 100 µM (inactive).

As to `C/C(CN1C(=O)c2ccccc2C1=O)=N\NS(=O)(=O)c1ccc(C)cc1`, the GI50 was > 100 µM (inactive) in assay [1]; > 100 µM (inactive) in [2]; > 100 µM (inactive) in assay [3]; > 100 µM (inactive) in assay [4]; more than 100 µM in [5]; > 100 µM (inactive) in assay [7]. Moreover, the GI50 in assay [8], in assay [9], in assay [14], in assay [10], in assay [15] and in assay [12] was > 100 µM (inactive) each time. Moreover, the GI50 in assay [16], in [17] and in assay [13] was > 100 µM (inactive) throughout.

Regarding `CCNC(=O)O/N=C1\CCC2[C@@H]3CC=C4C[C@@H](OC(=O)NCC)CC[C@]4(C)C3CC[C@]12C` (some centres not stated), the GI50 is 22.3 µM (inactive) in [1]; 1.38 µM (inactive) in assay [2]; 0.387 µM (active) in [3]; 0.735 µM (active) in [4]; 2.15 µM in assay [5]; 3.08 µM (inactive) in assay [6]. Besides, the GI50 in assay [7] is 4.43 µM (inactive); in [8], 1.31 µM (inactive); in [9], 1.05 µM (active); in assay [10], 2.58 µM (inactive); in assay [15], 1.46 µM (inactive); in [11], 3.42 µM (inactive). Further, the figures for the GI50 in [12], in assay [16] and in assay [13] were 0.971 µM (active), 7.82 µM (inactive) and 1.77 µM (inactive), respectively.

Consider `CCCOc1ccc(/C=C\c2cc(OC)c(OC)c(OC)c2)cc1`, for which the GI50 in [1] is 26.6 µM (inactive); in [2], 73.3 µM (inactive); in assay [3] it was 39.2 µM (inactive); in assay [4], 87.5 µM (inactive); in assay [5], 43.6 µM; in assay [6] it was 34.7 µM (inactive). Moreover, the GI50 was > 100 µM (inactive) in assay [7]; 53.3 µM (inactive) in [8]; > 100 µM (inactive) in assay [14]; 10.1 µM (inactive) in assay [10]; 14.5 µM (inactive) in [15]; 40.1 µM (inactive) in [11]. In addition, the GI50 in [12] is 39.9 µM (inactive); in assay [13], 31.8 µM (inactive).

For `O=C(CC1(O)C(=O)Nc2ccccc21)c1cccc(O)c1` (configuration not stated), the GI50 was > 100 µM (inactive) in [1]; > 100 µM (inactive) in [2]; > 100 µM (inactive) in assay [3]; > 100 µM (inactive) in assay [4]; more than 100 µM in assay [5]; > 100 µM (inactive) in assay [6]. The GI50 in assay [7], in assay [8], in [9], in assay [14], in assay [10] and in [15] was > 100 µM (inactive) throughout. Moreover, the GI50 in [11], in assay [12], in assay [16] and in assay [13] was > 100 µM (inactive) each time.

On to `NC(=O)COc1c(Br)cc(Br)cc1Br`, for which the GI50 in assay [2] was > 100 µM (inactive); in assay [3] it was > 100 µM (inactive); in assay [4], > 100 µM (inactive); in assay [5], more than 100 µM; in assay [8], > 100 µM (inactive); in assay [9], > 100 µM (inactive). Also, the GI50 in [14], in [10], in assay [15], in assay [12], in [16] and in [17] was > 100 µM (inactive) throughout.

With `COc1ccc2oc3c(OC)c(OC)c(OC)cc3c(=O)c2c1`, the GI50 in [1] was > 100 µM (inactive); in [2], > 100 µM (inactive); in assay [3] it was > 100 µM (inactive); in assay [4], 76 µM (inactive); in assay [5], more than 100 µM; in assay [7], > 100 µM (inactive). Besides, the GI50 was > 100 µM (inactive) in assay [8]; > 100 µM (inactive) in [9]; > 100 µM (inactive) in [10]; > 100 µM (inactive) in assay [15]; 21.4 µM (inactive) in assay [11]; > 100 µM (inactive) in [16]. Besides, the GI50 in assay [13] was > 100 µM (inactive).
